Values joined by “and” are separate entries in the source; they are usually repeats but may differ in a detail not shown here. Identical values can stand only once.
Legend:
[1] = Pharmacokinetics of total platinum in rats (ICP-MS) in blood, plasma and ultrafiltrate plasma; conditions: intraperitoneal, 16.7 nmol/kg, mean ± sd (n = 6)
Experimental: The biological samples were pretreatmented by adding 60-fold volume of ICP-MS diluent, which is an aqueous solution containing 2% nitric acid and 0.5% Triton. After vortex for 30 s, the samples were placed quietly for few minutes to obtain a clear supernatant for ICP-MS analysis of total platinum.
Platinum determination was performed with a NexION 2000 Inductively Coupled Plasma-Mass Spectrometer and a Syngistix™ Software-ES version 2.4 (PerkinElmer, USA). Instrumental settings were optimized in order to yield maximum sensitivity for platinum, with the scan mode Peak Hopping, Dwell time per AMU 50 ms and single MCA Channel. […] The assay method was evaluated with four kinds of matrix including blood, plasma, ultrafiltrate plasma, and cell lysate.
(§1) Male Sprague-Dawley rats (n = 18, 200 ± 20g) were provided by Shanghai Jiesijie Experimental Animal Co., Ltd (Shanghai, China) and certificate number was scxk (hu) 2013-0006. Animals were allowed to adapt to the housing environment for 1 week prior to study. […] All animal studies were approved by the Animal Ethics Committee of China Pharmaceutical University.
(§2) Blood-sampling times were arranged as 0, 0.083, 0.5, 1, 2, 4, 8, 12, 24, 48, 72h post-dose for all three platinum-based anticancer drugs. When each time point reached, blood samples (about 800 µl) were collected from the fossa orbitalis. 150 µl of the blood was spiked into another 1.5 ml tube as the blood sample. The rest of the blood was centrifuged immediately at 8,000 rpm for 10 min and the supernatant plasma was harvested. 50 µl of the supernatant plasma was spiked into 1.5 ml for determining total platinum in plasma sample and 50 µl of the supernatant plasma was spiked into 1.5 ml tube for determining intact platinum-based drug in plasma. The remaining plasma was used to prepare ultrafiltrate plasma with Amicon® Ultra 10K Centrifugal Filter Devices, centrifuged at 14,000 g for 20 min. All the samples were stored at -80 °C until analysis.
(§3) The pharmacokinetic parameters were calculated using the software WinNonlion Version 6.4 by non-compartmental method. Statistical significance was tested by Student’s t -test. P < 0.05 was considered statistically significant, while P < 0.01 was considered highly significant.

[2] = Pharmacokinetics of intact platinum-based drugs in rats (UPLC-MS/MS) in blood, plasma and ultrafiltrate plasma; conditions: intraperitoneal; for complete elimination time of intact drug: equal moles, plasma and ultrafiltrate plasma
Experimental: The biological samples were pretreatmented by precipitation with acetonitrile. To each 50 µl sample volume, 200 µl of acetonitrile containing IS (25 ng/ml) was added. The samples were then centrifuged for 10 min at 15,000 rpm, after which 5 µl of the supernatant was injected into the UPLC column for analysis of intact drug.
The ACQUITY UPLC I class system consisted of an autosampler, pump, column oven, and controller (waters, MA, USA). Chromatographic separation was performed on an ACQUITY UPLC BEH Amide column (Part NO:186004800, 1.7 µm, 2.1 × 50mm, Waters, MA, USA) and the pre-column is ACQUITY UPLC BEH C18 (1.7µm, Waters, MA, USA). The binary mobile phase consisted of mobile phase B: acetonitrile and mobile phase A: water containing 5 mm ammonium acetate. The injection volume was 5 µl and the column temperature was 40°C. The gradient program was as follows: 0–1 min, 95% phase B; 1–2 min, 95–70% phase B; 2–4 min,70% phase B; 4–5 min, 70–95% phase B; 5–7min, 95% phase B. The total run time is 7.0 min and the flow rate was set at 0.6 ml/min.
The UPLC system was interfaced with a Xevo TQ-XS Mass Spectrometer with MassLynx V4.2 software package (Waters, MA, USA). The mass spectrometer was operated using Turbo Spray source in positive multiple-reaction monitoring-mode (MRM) for intact drug determination. […] The optimal parameters for MS/MS conditions are as follows: capillary 2.4 kV; cone 25 V; desolvation temperature 450 °C.
The assay method was evaluated with four kinds of matrix including blood, plasma, ultrafiltrate plasma, and cell lysate. […] The precision and accuracy for three intact platinum-based drugs in blood/plasma/ultrafiltrate plasma were investigated by replicate analysis of six sets of samples at four concentration levels: 2, 5, 200, and 4,000 ng/ml. The precision and accuracy for the assay method in cell lysate were investigated at four concentration levels of 2, 5, 20, and 160 ng/ml.
as §1, §2, §3

LOVO cells [3] = assay: Subcellular distribution of oxaliplatin (total Pt by ICP-MS) in LOVO cells; conditions: 200 µm oxaliplatin, within 2 h
Experimental: (§4) Human colon cancer HCT-116 and LOVO cell line was purchased from cell bank of Shanghai Institute of Biochemistry and Cell Biology (Shanghai, China). HCT-116 cells and LOVO cells were maintained as monolayer cultures respectively in McCoy’s 5a medium and F-12K medium, supplemented with 10% fetal bovine serum, 1% penicillin and streptomycin, in a water-saturated atmosphere (95% air/5% CO2) at 37°C.
(§5) We treated the cell monolayers in the same way as the uptake study above.
(§6) Finally, all the monolayers of cells treated with drug-containing medium were washed three times with cold HBSS. Then cells were harvested by 0.25% trypsin digestion and the resulting cell suspension was centrifuged at 1,000 rpm for 5 min. For the uptake and elimination studies, pellets were then diluted in appropriate volume of water and repeatedly freeze-thawed three times to obtain drug-containing cell samples. For the subcellular distribution study, the pellets were further treated according to the manufacturer’s protocol of mitochondrial/nuclear separation kit (KeyGEN BioTECH, Nanjing, China) with differential centrifugation method to prepare the isolated cytosol, nucleus, and mitochondria samples. The cytosol, nucleus, and mitochondria were dissolved in the corresponding buffer salt from the instruction. […]
(§7) All the prepared subcellular samples for cytosol, nucleus, and mitochondria are determined by ICP-MS method.

HCT-116 cells [4] = assay: Uptake of oxaliplatin (total platinum and intact drug) in HCT-116 cells
Experimental: as §4
(§8) For the temperature dependent study, the cell monolayers were treated with 4 ml drug-containing medium at 200 µm for 30 min incubation respectively at 4 °C and 37 °C.
(§9) Finally, all the monolayers of cells treated with drug-containing medium were washed three times with cold HBSS. Then cells were harvested by 0.25% trypsin digestion and the resulting cell suspension was centrifuged at 1,000 rpm for 5 min. For the uptake and elimination studies, pellets were then diluted in appropriate volume of water and repeatedly freeze-thawed three times to obtain drug-containing cell samples. For the subcellular distribution study, the pellets were further treated according to the manufacturer’s protocol of mitochondrial/nuclear separation kit (KeyGEN BioTECH, Nanjing, China) with differential centrifugation method to prepare the isolated cytosol, nucleus, and mitochondria samples. The cytosol, nucleus, and mitochondria were dissolved in the corresponding buffer salt from the instruction. An aliquot of 20 μl of each cellular or subcellular sample was removed for protein determination using BCA protein assay kit according to the manufacturer’s instructions (micro-well plate protocol).

LOVO cells [5] = assay: Uptake of oxaliplatin (total platinum and intact drug) in LOVO cells
Experimental: as §4, §8, §9

HCT-116 cells [6] = assay: Subcellular distribution of oxaliplatin (total Pt by ICP-MS) in HCT-116 cells; conditions: HCT-116, 200 µm oxaliplatin, within 2 h
Experimental: as §4, §5, §6, §7

HCT-116 cells [7] = assay: Elimination of oxaliplatin in HCT-116 cells; assay type: in vitro ADME, Human; conditions: HCT-116, 200 µm oxaliplatin 30 min
Experimental: (§10) Cells were used for studying cellular pharmacokinetics of oxaliplatin.
(§11) Then the drug-containing medium was discarded and the cell monolayers were washed three times with cold HBSS. After that, fresh blank medium was added to the monolayers with incubation for different times of 5, 15, 30, 45, 60, 120 min.
(§12) To evaluate the elimination behavior of oxaliplatin in colon cancer cells, both oxaliplatin and total platinum of samples are determined by UPLC-MS/MS and ICP-MS method. The results are all normalized to cell protein.

LOVO cells [8] = assay: Elimination of oxaliplatin in LOVO cells; assay type: in vitro ADME, Human; conditions: 200 µm oxaliplatin 30 min
Experimental: as §10, §11, §12

[9] = total Pt in ultrafiltrate plasma
[10] = intact drug in blood, 16.7 nmol/kg, mean ± sd (n = 6)
[11] = intact drug in plasma, 16.7 nmol/kg, mean ± sd (n = 6)
[12] = intact drug in ultrafiltrate plasma, 16.7 nmol/kg, mean ± sd (n = 6)
[13] = ng Pt/mg protein of subcellular organelles
[14] = HCT-116, 200 µm oxaliplatin, 15-120 min, normalized to cellular protein
[15] = 200 µm oxaliplatin, 15-120 min, normalized to cellular protein

N.N.O=C([O-])C1(C(=O)[O-])CCC1.[Pt+2] [carboplatin, Carboplatin]
Vz ([1]; total Pt in blood): 0.009 L/kg | Cl ([1]; total Pt in plasma): 7.92 mL/day/kg | Vz ([1]; total Pt in plasma): 0.014 L/kg | Cl [1, 9]: 16.1 mL/day/kg | Vz [1, 9]: 0.016 L/kg | Cl [2, 10]: 1.1 mL/h/kg and 1.1 ± 0.1 mL/h/kg | Cmax [2, 10]: 9.9 ± 0.45 µM | T1/2 [2, 10]: 2.04 ± 0.13 h | Vz [2, 10]: 0.0033 L/kg and 0.0033 ± 0.0004 L/kg | Cl [2, 11]: 0.1 mL/h/kg | Cmax [2, 11]: 11.2 ± 0.49 µM | T1/2 [2, 11]: 1.95 ± 0.12 h | Vz [2, 11]: 0.0028 L/kg and 0.0028 ± 0.0003 L/kg | Cl [2, 12]: 1.2 mL/h/kg and 1.2 ± 0.2 mL/h/kg | Cmax [2, 12]: 10.1 ± 0.75 µM | T1/2 [2, 12]: 1.52 ± 0.49 h | Tmax [2, 12]: 25.2 ± 11.4 min | Vz [2, 12]: 0.0027 ± 0.0009 L/kg | complete elimination time of intact drug ([2]; intact drug in blood): 12 h

O=C1[O][Pt]2([NH][C@@H]3CCCC[C@H]3[NH]2)[O]C1=O [oxaliplatin, Oxaliplatin]
Vz ([1]; total Pt in blood): 0.001 L/kg | Cl ([1]; total Pt in plasma): 2.4 mL/day/kg | Vz ([1]; total Pt in plasma): 0.004 L/kg | Cl [1, 9]: 33.6 mL/day/kg | Vz [1, 9]: 0.038 L/kg | subcellular accumulation of Pt in organelles over incubation time (LOVO cells [3]): increased with the increasing incubation time | order of Pt concentration in cytosol, mitochondria and nucleus (LOVO cells [3]; [13]): the concentration of Pt in cytosol is more than that in mitochondria, followed by the concentration of Pt in nucleus | cellular concentration of total platinum and intact oxaliplatin versus medium concentration (HCT-116 cells [4]; HCT-116, 20-500 µM oxaliplatin, 30 min): increased with increasing medium concentration of oxaliplatin | cellular accumulation of intact oxaliplatin over incubation time (HCT-116 cells [4]; [14]): increased over incubation time at the beginning of drug treatment (0–45 min), then gradually decreased (45–120 min) | cellular total platinum over incubation time (HCT-116 cells [4]; [14]): increased within increasing incubation time | cellular accumulation of platinum or oxaliplatin versus temperature (HCT-116 cells [4]; HCT-116, 200 µm oxaliplatin, 30 min, 4 °C vs 37 °C, P < 0.001): significant higher at 37 °C than that at 4 °C | cellular concentration of total platinum and intact oxaliplatin versus medium concentration (LOVO cells [5]; 20-500 µM oxaliplatin, 30 min): increased with increasing medium concentration of oxaliplatin | cellular accumulation of intact oxaliplatin over incubation time (LOVO cells [5]; [15]): increased over incubation time at the beginning of drug treatment (0–45 min), then gradually decreased (45–120 min) | cellular total platinum over incubation time (LOVO cells [5]; [15]): increased within increasing incubation time | cellular accumulation of platinum or oxaliplatin versus temperature (LOVO cells [5]; 200 µm oxaliplatin, 30 min, 4 °C vs 37 °C, P < 0.001): significant higher at 37 °C than that at 4 °C | subcellular accumulation of Pt in organelles over incubation time (HCT-116 cells [6]): increased with the increasing incubation time | order of Pt concentration in cytosol, mitochondria and nucleus (HCT-116 cells [6]; [13]): the concentration of Pt in cytosol is more than that in mitochondria, followed by the concentration of Pt in nucleus | Cl [2, 10]: 49 mL/h/kg and 49 ± 6.6 mL/h/kg | Cmax [2, 10]: 0.42 ± 0.06 µM | T1/2 [2, 10]: 0.55 ± 0.04 h | Vz [2, 10]: 0.0408 L/kg and 0.0408 ± 0.0058 L/kg | Cl [2, 11]: 6.9 mL/h/kg and 6.9 ± 0.6 mL/h/kg | Cmax [2, 11]: 3.9 ± 0.34 µM | T1/2 [2, 11]: 0.18 ± 0.00 h | Vz [2, 11]: 0.0018 L/kg and 0.0018 ± 0.0001 L/kg | Cl [2, 12]: 7.2 mL/h/kg and 7.2 ± 1.7 mL/h/kg | Cmax [2, 12]: 3.93 ± 0.45 µM | T1/2 [2, 12]: 0.18 ± 0.01 h | Vz [2, 12]: 0.0019 ± 0.0006 L/kg | complete elimination time of intact drug ([2]; intact drug in blood): 2 h | time to complete elimination of cellular intact oxaliplatin (HCT-116 cells [7]; then blank medium): 1 h | cellular platinum after change to blank medium (HCT-116 cells [7]; then blank medium up to 2 h): just has a little decrease in 2 h | time to complete elimination of cellular intact oxaliplatin (LOVO cells [8]; then blank medium): 1 h | cellular platinum after change to blank medium (LOVO cells [8]; then blank medium up to 2 h): just has a little decrease in 2 h

Reference: PMC6960190, “Systemic Evaluation on the Pharmacokinetics of Platinum-Based Anticancer Drugs From Animal to Cell Level: Based on Total Platinum and Intact Drugs” (Frontiers in Pharmacology, 2020)
